Test results taken from patent US9808470B2, “Estrogenic components for use in the treatment of neurological disorders” (UNIVERSITE DE LIEGE, priority 2012, dated 2017).

Assays:
Assay type in all cases: in vivo
[1] = tested on: Microtubule-associated protein 2 (MAP2); assay: Ex.3 neuroprotective HIE rat model: MAP2 staining; settings: PND14
Method: The brain sections were processed for immunohistochemical detection of neuronal cytoskeletal disruption. For antigen retrieval, the sections were heated in 10 mmol/L citrate buffer (pH 6.0) at 100° C. for 10 minutes. Endogenous peroxidase activity was blocked with 3% hydrogen peroxide for 10 minutes and after a second blocking with 5% normal goat serum, the sections were incubated with anti-microtubule-associated protein 2 (MAP2) antibody, diluted 1:1000 (mouse monoclonal antibody; Sigma, St. Louis, Mo., US) 1 h at room temperature. After rinsing, biotinylated goat anti-mouse immunoglobulin G (Vector Laboratories, Burlingame, Calif.) was added, and antibody detection was performed with the avidin-biotin complex method (Vector Laboratories), with 3,3′-diaminobenzidine (DAB) as the chromogen. Following the reaction with DAB, the slides were washed, dehydrated, and coverslipped.
Samples were analyzed with the aid of an image scanner (Nanozoomer Virtual Microscopy, Hamamatsu, Tokyo, Japan) and the ImageJ software (NIH, US). The MAP2 positive areas in the ipsilateral and contralateral hemispheres were measured. The ratio of the MAP2 positive areas was calculated as the MAP2 positive area of the ipsilateral hemisphere divided by the MAP2 positive area of the contralateral hemisphere. The ratio of the MAP2 positive area in the Sham group was considered by default as 1.0.
(§1) Newborn rat pups were assigned to one of the following 6 groups from postnatal day 4: Sham group (n=24), Vehicle group (n=14), E4 1 mg/kg/per day group (n=11), E4 5 mg/kg/per day group (n=14), E4 10 mg/kg/per day group (n=14), or E4 50 mg/kg/per day group (n=19). From postnatal day 4, rat pups were intraperitoneally injected either vehicle (Vehicle group) or E4 (1, 5, 10, or 50 mg/kg/per day in accordance to the E4 group assignment) or neither vehicle nor E4 (Sham group). At day 7, 30 minutes after last injection, animals were anesthetized with isoflurane (induction, 3.0%; maintenance, 1.5%), and the rat pups from Vehicle and E4 groups passed through surgery encompassing left common carotid artery double ligation and cut. After the procedure, the pups were returned to their dams and were allowed to recover for 1 hour. The pups were then placed in the humidified hypoxic in vivo cabinet (CoyLab, Grass Lake, Mich., USA). Hypoxia was produced by the inhalation of 11%-8% of oxygen balanced by nitrogen at decreased concentration of oxygen for 20 minutes, followed by inhalation of 8% oxygen and 92% nitrogen at constant concentration for 35 minutes. All the manipulations were performed at 37° C. The Sham group went through similar procedures without left common carotid artery ligation followed by hypoxia nor injection. […]

[2] = tested on: glial fibrillary acidic protein (GFAP); assay: Ex.3 neuroprotective HIE rat model: blood serum GFAP ELISA; settings: 50 mg/kg E4 ip PND4-7 before HI; PND14
Method: Blood was withdrawn, centrifuged and the serum samples were stored at −80° C.
ELISAs for detecting the brain damage markers S100B protein (Catalog# CSB-E08066r, Cusabio Biotech Co., LTD, China), and glial fibrillary acidic protein (GFAP) (Catalog# E90068Ra, Uscn Life sciences Inc., China) in blood serum samples were performed according to the manufacturers' recommendations.
as §1, with “USA).” for “USA). Hypoxia was produced by the inhalation of 11%-8% of oxygen balanced by nitrogen at decreased concentration of oxygen for 20 minutes, followed by inhalation of 8% oxygen and 92% nitrogen at constant concentration for 35 minutes. All the manipulations were performed at 37° C. The Sham group went through similar procedures without left common carotid artery ligation followed by hypoxia nor injection.”

[3] = tested on: vascular endothelial growth factor (VEGF); assay: Ex.4 therapeutic HIE rat model: VEGF staining
Method: The sections were heated in 10 mmol/L citrate buffer (pH 6.0) at 100° C. for 10 minutes. Endogenous peroxidase activity was blocked with 3% hydrogen peroxide for 10 minutes and after a second blocking with 5% normal goat serum, the sections were incubated with anti-doublecortin (DCX) antibody, diluted 1:1000 (rabbit polyclonal antibody; Abcam, Cambridge, UK) and anti-vascular endothelial growth factor (VEGF) antibody, diluted 1:100 (mouse monoclonal antibody; Abcam, Cambridge, UK) overnight at 4° C. After rinsing, Alexa Fluor® goat anti-rabbit, diluted 1:1000 and Alexa Fluor® goat anti-mouse, diluted 1:1000 (Invitrogen Inc., Ghent, Belgium) were added and sections were incubated 1 h at room temperature. Mounting medium containing 4′,6-diamidino-2-phenylindole (DAPI) for fluorescent studies was used (Vector Laboratories). Samples were analyzed with the aid of a microscope (Olympus Vanox AHBT3, Olympus), and the ImageJ software (NIH). The percentage of positively stained cells was quantified as a sum of positively stained either DCX or VEGF cells divided by the total number of DAPI positive cells expressed in percentage.
To study the therapeutic effect of estetrol, newborn rat pups were assigned to one of the following 6 groups at postnatal day 7: sham group (n=29), vehicle group (n=20), 1 mg/kg E4 group (n=16), 5 mg/kg E4 group (n=19), 10 mg/kg day E4 (n=17) and 50 mg/kg day E4 group (n=15). At postnatal day 7 animals were anesthetized with isoflurane (induction, 3.0%; maintenance, 1.5%), and the rat pups from vehicle and E4 groups passed through surgery encompassing left common carotid artery double ligation and cut. After surgery, the pups were returned to their dams and allowed to recover for 1 hour. The pups were then placed in a humidified hypoxic in vivo cabinet (CoyLab). Hypoxia was produced by the inhalation of 11%-8% of oxygen balanced by nitrogen at decreased concentration of oxygen for 20 minutes, followed by inhalation of 8% oxygen and 92% nitrogen at constant concentration for 35 minutes. All the manipulations were performed at 37° C.
Upon retrieval from the hypoxia chamber the rat pups were injected intraperitoneally either by vehicle (vehicle group) or by E4 (1 mg/kg, 5 mg/kg, 10 mg/kg or 50 mg/kg) in accordance to the group assignment. The animals from the sham group went through similar procedures but proceeded neither left common carotid artery ligation and cut followed by hypoxia nor vehicle or estetrol administration. Rat pups recovered with their dams until being sacrificed at postnatal day 14.

Question: Which “ratio of MAP2-positive area (ipsilateral/contralateral)” value (“ratio … (ipsilateral/contralateral)” for short) ([1]; 1 mg/kg E4 ip PND4-7 before HI) does the source give for `C[C@]12CC[C@@H]3c4ccc(O)cc4CC[C@H]3[C@@H]1[C@@H](O)[C@@H](O)[C@@H]2O` [E4, 1,3,5(10)-estratrien-3,15α,16α,17β-tetrol] here?
Answer: 0.929±0.019

Question: What about the “ratio … (ipsilateral/contralateral)” value ([1]; 5 mg/kg E4 ip PND4-7 before HI) of the same molecule?
Answer: 0.889±0.063

Question: What about the “ratio … (ipsilateral/contralateral)” value ([1]; 10 mg/kg E4 ip PND4-7 before HI) of the same molecule?
Answer: 0.898±0.022

Question: And the “ratio … (ipsilateral/contralateral)” value ([1]; 50 mg/kg E4 ip PND4-7 before HI)?
Answer: 0.922±0.031

Question: And the “concentration of GFAP in blood serum” value [2]?
Answer: 300.388 ± 31.232 pg/mL

Question: What about the “percentage of VEGF positively stained cells” value (shortened to “percentage”) ([3]; 5 mg/kg E4 single ip dose after HI, CA1) of the same molecule?
Answer: 37.4±4.833%

Question: What about the “percentage” value ([3]; 10 mg/kg E4 single ip dose after HI, CA1) of the same molecule?
Answer: 37.1±3.84%

Question: And the “percentage” value ([3]; 10 mg/kg E4 single ip dose after HI, cortex)?
Answer: 49.4±4.949%

Question: And the “percentage” value ([3]; 50 mg/kg E4 single ip dose after HI, CA1)?
Answer: 45.1±4.753%

Question: What about the “percentage” value ([3]; E4 1, 5, 10, 50 mg/kg single ip dose after HI, CA2/CA3, between study groups) of the same molecule?
Answer: not significantly different between the study groups

Question: What about the VEGF staining ([3]; E4 1, 5, 10, 50 mg/kg single ip dose after HI, DG, among study groups) of the same molecule?
Answer: neither DCX nor VEGF staining was significantly different
